Data from patent US11191773B2, “Methods of treatment for bacterial infections” (President and Fellows of Harvard College, priority 2017, dated 2021).
Values after ≈ are worked out from the molar mass of the structure shown.

Legend:
ΔtolC = assay: Minimum inhibitory concentration assay; format: cell-based, E. coli
Method: (§1) We wondered whether it would be possible to separate novobiocin's ability to suppress the IptFG(ch) defects in vivo from its activity against DNA gyrase, its presumed primary target. […] Minimum inhibitory concentrations were measured after a 15-hr incubation period at 37° C.
(§2) Overnight cultures were prepared by transferring 5 mL of sterile LB Miller media to culture tubes and inoculating with the corresponding organism. The tubes were allowed to shake at 220 rpm, 37° C. overnight. 15 μL of overnight culture was diluted in 15 mL of LB Miller in a Falcon tube and was vortexed to mix. In a 96-well plate, 100 μL of diluted culture was added to each well. To column #1, an additional 100 μL of diluted culture and test compound was added (93.7 μL culture+6.35 μL 10 mg/mL novobiocin) or (94.2 μL culture+5.87 μL 10 mg/mL 1-adamantyl-novobiocin) such that the highest concentration tested was 500 μM. Transferred 100 μL from column #1 into column #2, etc, and mixed each time thoroughly. Repeated serial dilution until column #11. Incubated the plate at 37° C. overnight (˜16 h) and read the turbidity (OD600) using a Spectramax 384 plus plate reader (Molecular Devices).

wild type = assay: Minimum inhibitory concentration assay; format: cell-based, E. coli; conditions: Escherichia coli, 15 h, read-out: Minimum inhibitory concentration
Method: as §1, §2

lptB1 = assay: Minimum inhibitory concentration assay; format: cell-based, E. coli
Method: as §1, §2

wild type and IptB1 = assay: Plating assay (FIG. 14); format: cell-based, E. coli
Method: (§3) Efficiency of plating assays were performed on indicated media using the method described in Butler et al., J. Bacteriol. 2013, 195, 4639-4649.

[1] = target: T1, LptB2LptFG(ch)C complexes (Escherichia coli, UniProt P0A9V1); assay: LPS-release assay, right-side-out vesicles to LptA*; format: biochemical, E. coli; conditions: 30° C. (FIG. 9C)
T1 construct: made in house; host or cells: right-side-out membrane vesicles from E. coli BL-21(λDE3) overexpressing the complex
T1 sequence (P0AF98 whole entry E84A): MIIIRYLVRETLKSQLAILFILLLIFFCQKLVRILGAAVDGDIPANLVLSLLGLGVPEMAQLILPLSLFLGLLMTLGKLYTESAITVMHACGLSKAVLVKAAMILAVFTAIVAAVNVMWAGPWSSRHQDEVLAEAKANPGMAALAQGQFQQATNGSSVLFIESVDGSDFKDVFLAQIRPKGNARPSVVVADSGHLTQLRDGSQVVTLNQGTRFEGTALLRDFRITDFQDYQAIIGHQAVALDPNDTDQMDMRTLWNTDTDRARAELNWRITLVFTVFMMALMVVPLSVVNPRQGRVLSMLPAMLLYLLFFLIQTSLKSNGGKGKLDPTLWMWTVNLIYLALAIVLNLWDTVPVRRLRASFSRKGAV
T1 sequence (P0ADC6 whole entry E88A, further chain): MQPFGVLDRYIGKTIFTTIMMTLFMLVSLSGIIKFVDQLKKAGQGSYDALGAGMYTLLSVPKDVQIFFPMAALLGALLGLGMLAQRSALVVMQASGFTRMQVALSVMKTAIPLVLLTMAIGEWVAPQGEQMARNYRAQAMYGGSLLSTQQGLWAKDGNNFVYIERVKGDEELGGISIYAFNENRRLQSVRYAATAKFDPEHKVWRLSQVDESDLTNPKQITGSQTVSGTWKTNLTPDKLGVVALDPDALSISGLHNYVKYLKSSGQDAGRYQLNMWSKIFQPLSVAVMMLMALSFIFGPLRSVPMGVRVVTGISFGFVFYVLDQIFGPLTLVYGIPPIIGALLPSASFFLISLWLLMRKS
T1 sequence (P0A9V1 2-241): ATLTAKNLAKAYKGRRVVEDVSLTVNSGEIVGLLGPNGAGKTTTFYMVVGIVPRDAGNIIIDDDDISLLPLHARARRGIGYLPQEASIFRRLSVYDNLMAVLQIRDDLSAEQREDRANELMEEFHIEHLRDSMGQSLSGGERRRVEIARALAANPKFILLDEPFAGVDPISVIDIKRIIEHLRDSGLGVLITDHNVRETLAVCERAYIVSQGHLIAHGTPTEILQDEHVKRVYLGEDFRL
T1 sequence (P0ADV9 whole entry, further chain): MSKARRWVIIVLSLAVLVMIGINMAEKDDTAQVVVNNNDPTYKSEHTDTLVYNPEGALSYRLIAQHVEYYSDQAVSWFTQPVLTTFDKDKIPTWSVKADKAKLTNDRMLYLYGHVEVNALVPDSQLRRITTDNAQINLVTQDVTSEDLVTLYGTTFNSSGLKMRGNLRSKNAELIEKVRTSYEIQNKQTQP
Method: (§4) FIG. 9A is a schematic drawing showing the assay to monitor LPS release from right-side-out vesicles to LptA* (LptA(I36pBPA)). Vesicles containing overexpressed wild-type or mutant LptB2FGC complexes were incubated with LptA* and ATP at 30° C. to initiate LPS extraction and transport from the vesicles to LptA*. Samples were taken at different time points and UV-irradiated to crosslink LPS to LptA*, and accumulation of LPS-LptA* adducts was detected using LPS immunoblots.
(§5) The assay detects via immunoblot LPS that becomes crosslinked to LptA* in the presence of UV light. […] By comparison, vesicles containing LptB2LptFG(ch)C complexes released less LPS over time (FIG. 9B, lanes 5-8). These experiments provide direct evidence that the amino acid changes in LptFG(ch), which were known to affect complex formation with LptB, impair LPS release. […] These compounds also increase LPS release from vesicles containing wild-type LptB2FGC complexes or LptB(R91 S)2FGC complexes (FIG. 17).
The in vitro LPS-transport experiments in FIGS. 9B, 9C, and 17 were set-up as described in (Okuda et al. Science 2012, 338, 1214-1217) with some modifications. […]
(§6) Immunoblotting was used to assess LptA*-LPS levels in each sample. […] LptA levels were assessed similarly, using rabbit anti-LptA antiserum followed by donkey anti-rabbit horseradish peroxidase conjugate (GE Amersham). […]

IptFG(ch) mutant = assay: Rescue of growth of coupling helix mutant (plating and disk assays); format: cell-based, E. coli
Method: FIG. 8B is a series of pictures of bacterial overnight cultures grown in minimal medium. The cultures were serially diluted ten-fold and spotted onto LB agar plates with and without compounds.
FIG. 15 is a picture of bacterial lawns grown on plates in the presence of disks containing antibiotics. […] Strains were grown overnight in minimal media and then plated on LB plates. Each disk contained 5 μg compound.
The coupling helices in LptFG each contain a strictly-conserved glutamate, and changing both glutamates to alanine (IptFG(ch)) causes a lethal loss of function (FIG. 8B, LB panel). […] Because novobiocin also contacts R91 (FIG. 7C), we speculated that it might rescue growth of IptFG(ch) by masking the charge. […] We conclude that novobiocin suppresses Lpt defects in vivo by interacting with LptB at R91; therefore, novobiocin interacts with LptB in cells in a similar manner to that observed in the crystal structure.
Disk diffusion assays were performed as described in Sherman et al., Proc. Natl. Acad. Sci. USA 2014, 111, 4982-4987. Premade Sensi-Disc (BD-Beckton, Dickinson and Company) were used for bacitracin 10IU, erythromycin 15 μg, novobiocin 30 μg, and rifampin 5 μg.
as §3

[2] = target: T2, wild-type LptB2FGC complexes (Escherichia coli, UniProt P0A9V1); assay: LPS-release assay, right-side-out vesicles to LptA*; format: biochemical, E. coli; conditions: overexpressed LptB2FGC vesicles, 30° C. for 1 hour (FIG. 9D, 9E)
T2 construct: made in house; host or cells: right-side-out membrane vesicles from E. coli BL-21(λDE3) overexpressing the complex
T2 sequence (P0AF98 whole entry): as the sequence (P0AF98 whole entry E84A) above, with A84E counted along it
T2 sequence (P0ADV9 whole entry, further chain): as the sequence (P0ADV9 whole entry, further chain) above
T2 sequence (P0ADC6 whole entry, further chain): as the sequence (P0ADC6 whole entry E88A, further chain) above, with A88E counted along it
T2 sequence (P0A9V1 2-241): as the sequence (P0A9V1 2-241) above
Method: as §4
FIG. 9D is a picture of an immunoblot showing that novobiocin and derivatives with impaired gyrase activities stimulate LPS transport in E. coli in vitro. […] Samples were UV irradiated at 365 nm for 5 minutes and then quenched with 2X SDS/5% β-mercaptoethanol. Samples were immunoblotted.
as §5
Samples were UV irradiated at 365 nm for 5 minutes and then quenched with 2X SDS/5% β-mercaptoethanol. Samples were immunoblotted.
The in vitro LPS-transport experiments in FIGS. 9B, 9C, and 17 were set-up as described in (Okuda et al. Science 2012, 338, 1214-1217) with some modifications. RSO-vesicles (50 μg total protein) were diluted into 100 μL reaction buffer (10% v/v glycerol, 20 mM Tris (pH 8.0), 150 mM NaCl, 5 mM sodium-ATP, 5 mM MgCl2), and incubated on ice with novobiocin, 1-adamantyl-novobiocin, or no compound for 15 minutes (50× compound stocks in water were used for each concentration). […]
as §6

wild-type E. coli = assay: Checkerboard microdilution assay between PMB and clorobiocin / novobiocin (FIG. 9F); format: cell-based; conditions: 37° C. for 24 h
[3] = Escherichia coli, 15 h, read-out: Minimum inhibitory concentration

SMILES	MIC (ΔtolC; [3])	less potent in vivo compared to novobiocin (ΔtolC; efflux pump-deficient ΔtoIC strain)	MIC (wild type)	MIC (lptB1; [3])	less potent in vivo compared to novobiocin (lptB1; leaky IptB1 strain)	potency compared to novobiocin (wild type and IptB1)	LPS release from vesicles to LptA* [1]	suppression of lethality of IptFG(ch) (IptFG(ch) mutant; disks on LB plates, each disk 5 μg compound (FIG. 15))	rescue of growth of IptFG(ch) (IptFG(ch) mutant; serial dilutions spotted onto LB agar plates with compound (FIG. 8B))	LPS transport in vitro [2]	synergy with PMB (wild-type E. coli)
COC1C(OC(N)=O)C(O)[C@H](Oc2ccc3c(O)c(NC(=O)C45CC6CC(CC(C6)C4)C5)c(=O)oc3c2C)OC1(C)C (stereo partly drawn) [Novobiocin-adamantyl, (3R,4S,5R,6R)-6-((3-((3R,5S)-adamantane-1-carboxamido)-4-hydroxy-8-methyl-2-oxo-2H-chromen-7-yl)oxy)-5-hydroxy-3-methoxy-2,2-dimethyltetrahydro-2H-pyran-4-yl carbamate]	125 to 250 µM (≈ 73.3 to 147 µg/mL)	~100 ×	> 500 µM	125 µM (≈ 73.3 µg/mL)	~100 ×	less potent than novobiocin	stimulate LPS release from the LptB2LptFG(ch)C vesicles in a concentration dependent manner	suppressed the lethality of IptFG(ch)	completely suppressed the lethality of IptFG(ch)		
CO[C@@H]1[C@@H](OC(=O)c2ccc(C)[nH]2)[C@@H](O)[C@H](Oc2ccc3c(O)c(NC(=O)c4ccc(O)c(CC=C(C)C)c4)c(=O)oc3c2Cl)OC1(C)C [clorobiocin]										highly stimulates LPS transport in vitro	more potent synergy with PMB than novobiocin
